# Assay results from ChEMBL document CHEMBL3886774, “Bicyclic substituted pyrimidine compounds” (2016).
# Legend:
# [1] = target: cGMP-specific 3',5'-cyclic phosphodiesterase (Homo sapiens, UniProt O76074); test: The maximum final concentration of the compound was 10 μM. The plate was incubated at 30° C. for 1 h, and 20 μL of 70 μM EDTA was then added to stop the reaction. 26 μL of solution of each well was transferred to a 384-well plate.
# [2] = target: Dual 3',5'-cyclic-AMP and -GMP phosphodiesterase 11A (Homo sapiens, UniProt Q9HCR9); test: Caliper Mobility-Shift Assay: To a 96-well plate, 20 μL of 10 μM FL-cGMP as the substrate was added; then 1 μL solution of the compound in DMSO or DMSO solution without compound was added; and then 29 μL of 0.28 ng/μL PDE-11 enzyme buffer (100 mM Hepes pH 7.5, 5 mM MgCl2, 0.002% Brij-35) was added. The maximum final concentration of the compound was 10 μM. The plate was incubated at 30° C. for 1 h, and 20 μL of 70 μM EDTA was then added to stop the reaction. 26 μL of solution of each well was transferred to a 384-well plate.
# Dual 3',5'-cyclic-AMP and -GMP phosphodiesterase 11A, sequence (Q9HCR9 whole entry): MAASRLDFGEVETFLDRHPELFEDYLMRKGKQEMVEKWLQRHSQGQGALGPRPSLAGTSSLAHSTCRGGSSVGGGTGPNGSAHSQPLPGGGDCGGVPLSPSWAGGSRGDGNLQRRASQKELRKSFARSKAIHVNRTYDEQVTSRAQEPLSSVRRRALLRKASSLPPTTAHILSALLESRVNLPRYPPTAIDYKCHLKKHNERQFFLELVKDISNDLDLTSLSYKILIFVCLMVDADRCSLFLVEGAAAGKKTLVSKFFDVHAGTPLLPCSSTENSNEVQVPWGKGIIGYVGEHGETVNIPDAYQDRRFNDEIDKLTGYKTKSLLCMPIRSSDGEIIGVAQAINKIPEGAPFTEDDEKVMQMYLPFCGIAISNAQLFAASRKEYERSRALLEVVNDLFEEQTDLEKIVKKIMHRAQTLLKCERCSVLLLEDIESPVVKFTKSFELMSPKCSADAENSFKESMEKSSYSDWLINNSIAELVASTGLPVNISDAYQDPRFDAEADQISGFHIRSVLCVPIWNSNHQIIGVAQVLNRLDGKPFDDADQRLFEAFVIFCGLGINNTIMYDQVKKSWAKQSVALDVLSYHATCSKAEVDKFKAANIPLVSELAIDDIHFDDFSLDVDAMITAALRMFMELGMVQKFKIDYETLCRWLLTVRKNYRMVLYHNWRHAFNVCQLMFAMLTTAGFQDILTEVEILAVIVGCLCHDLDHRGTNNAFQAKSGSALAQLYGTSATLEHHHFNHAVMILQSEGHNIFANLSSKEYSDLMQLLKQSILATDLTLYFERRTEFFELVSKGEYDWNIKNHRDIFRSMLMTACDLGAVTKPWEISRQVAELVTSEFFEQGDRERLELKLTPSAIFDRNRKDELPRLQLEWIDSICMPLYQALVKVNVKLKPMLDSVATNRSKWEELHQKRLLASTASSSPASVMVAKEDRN
smiles,measurement,setting,value
COc1ccc(CNc2nc(N3CC4CC4C3)ncc2C(=O)NCc2ccccn2)cc1Cl (configuration not stated),IC50,[1],2.12 nM
same,IC50,[2],> 10 µM
